Assay results published in patent publication US9567339B2, “Primary carboxamides as BTK inhibitors” (AbbVie Inc., priority 2013, dated 2017).
Like-named read-outs stand apart in the source and are kept apart here.

Biological target: BTK, recombinant human catalytic domain (aa 393-659) (Homo sapiens (Human), UniProt Q06187)
Assay: In vitro BTK kinase activity measured by time-resolved fluorescence resonance energy transfer (trFRET)
Assay type: biochemical
Settings: read-out: Btk IC50
[1] = trFRET, 0.001 mM ATP, biotin-TYR1 peptide substrate

BTK, recombinant human catalytic domain (aa 393-659), sequence (Q06187 393-659): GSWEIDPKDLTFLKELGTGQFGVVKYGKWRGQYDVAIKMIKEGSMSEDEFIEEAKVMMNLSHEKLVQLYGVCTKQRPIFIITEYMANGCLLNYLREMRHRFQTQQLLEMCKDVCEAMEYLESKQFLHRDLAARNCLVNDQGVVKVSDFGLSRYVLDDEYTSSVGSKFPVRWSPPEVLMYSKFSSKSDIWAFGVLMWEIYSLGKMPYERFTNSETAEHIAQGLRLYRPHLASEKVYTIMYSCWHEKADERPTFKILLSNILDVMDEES

Row | SMILES | IC50 [µM] | IC50 [1] [µM]
1 | Cc1c(NC(=O)/C=C/CN2CCN(C)CC2)cccc1-c1ccc(C(N)=O)c2[nH]ccc12 [J.1.6] | 1 to 10 | 
2 | Cc1c(NC(=O)/C=C/CN(C)C)cccc1-c1cnc(C(N)=O)c2[nH]ccc12 [J.2.1] | 0.1 to 1 | 
3 | Cc1cc2c(N(C)C3CN(C#N)C3)ccc(C(N)=O)c2[nH]1 [J.3.1] | 0.1 to 1 | 
4 | Cc1c(-c2ccc(C(N)=O)c3[nH]c(-c4cnn(C[C@H](O)CO)c4)cc23)cccc1-n1cnc2ccccc2c1=O [K.1.1] | < 0.1 | 
5 | Cc1c(-c2ccc(C(N)=O)c3[nH]c(-c4cnn(C[C@@H](O)CO)c4)cc23)cccc1-n1cnc2ccccc2c1=O [K.1] |  | < 0.1
6 | CC(=O)N1CCC(c2cc3c(-c4cccc(N)c4C)ccc(C(N)=O)c3[nH]2)CC1 [L.1, 2-(1-Acetylpiperidin-4-yl)-4-(3-amino-2-methylphenyl)-1H-indole-7-carboxamide] |  | 0.1 to 1
7 | Cn1cc(-c2cc3c(-c4cccc(NC(=O)c5nccs5)c4CO)ccc(C(N)=O)c3[nH]2)cn1 [M.1, N-(3-(7-carbamoyl-2-(1-methyl-1H-pyrazol-4-yl)-1H-indol-4-yl)-2-(hydroxymethyl)phenyl)thiazole-2-carboxamide] |  | < 0.1
8 | Cn1cc(-c2cc3c(-c4cccc(-n5cnc6ccc(F)cc6c5=O)c4CO)ccc(C(N)=O)c3[nH]2)cn1 [M.1.1] | < 0.1 | 
9 | Cc1c(-c2ccc(C(N)=O)c3[nH]c(-c4cnn(CCO)c4)cc23)cccc1-n1cnc2ccccc2c1=O [M.1.2] | < 0.1 | 
10 | Cc1c(NC(=O)c2ccc(C(F)F)cc2)cccc1-c1ccc(C(N)=O)c2[nH]ccc12 [O.1.1] | 0.1 to 1 | 
11 | Cc1c(NC2COC2)cccc1-c1ccc(C(N)=O)c2[nH]ccc12 [O.1.2] | 1 to 10 | 
12 | CS(=O)(=O)N1CC=C(c2cc3c(N4CCC[C@@H](N5CCn6ccnc6C5=O)C4)ccc(C(N)=O)c3[nH]2)CC1 [O.1.3*] | < 0.1 | 
13 | CS(=O)(=O)N1CC=C(c2cc3c(N4CCC[C@@H](n5ccn6ccnc6c5=O)C4)ccc(C(N)=O)c3[nH]2)CC1 [O.1.4*] | < 0.1 | 
14 | Cc1nc(C(=O)NC2CCCN(c3ccc(C(N)=O)c4[nH]c(C5=CCN(S(C)(=O)=O)CC5)cc34)C2)co1 (centres unmarked) [O.1.5*] | < 0.1 | 
15 | NC(=O)c1ccc(N2CCC[C@@H](NC(=O)Nc3nccs3)C2)c2cc[nH]c12 [O.1.7*] | 1 to 10 | 
16 | NC(=O)c1ccc(N2CCC[C@@H](NC(=O)c3ccc(C(F)(F)F)cc3)C2)c2cc[nH]c12 [O.1.8*] | 1 to 10 | 
17 | COc1ccc(C(=O)N[C@@H]2CCCN(c3ccc(C(N)=O)c4[nH]ccc34)C2)cc1 [O.1.9*] | 1 to 10 | 
18 | CC(C)(C)c1cc(C(=O)N[C@@H]2CCCN(c3ccc(C(N)=O)c4[nH]ccc34)C2)no1 [O.1.10*] | 1 to 10 | 
19 | CC(C)(C)c1ccc(C(=O)N[C@@H]2CCCN(c3ccc(C(N)=O)c4[nH]ccc34)C2)cc1 [O.1.11*] | 1 to 10 | 

Row | SMILES | IC50 [µM] | IC50 [1] [µM]
20 | NC(=O)c1ccc(N2CCC[C@@H](n3cnc4ccccc4c3=O)C2)c2cc[nH]c12 [O.1.12*] | 1 to 10 | 
21 | NC(=O)c1ccc(N2CCCC(n3cnc4cc(C5CC5)cc(F)c4c3=O)C2)c2cc[nH]c12 (centres unmarked) [O.1.13] | 1 to 10 | 
22 | NC(=O)c1ccc(N2CCC[C@@H](n3cnc4ccccc4c3=O)C2)c2cc(-c3ccc(F)cc3)[nH]c12 [O.1.14*] | 0.1 to 1 | 
23 | NC(=O)c1ccc(N2CCC[C@@H](n3cnc4ccc(F)cc4c3=O)C2)c2cc(-c3ccc(F)cc3)[nH]c12 [O.1.15*] | 1 to 10 | 
24 | Cn1cc(-c2cc3c(N4CCC[C@@H](n5cnc6ccccc6c5=O)C4)ccc(C(N)=O)c3[nH]2)cn1 [O.1.16*] | 0.1 to 1 | 
25 | Cn1cc(-c2cc3c(N4CCC[C@@H](N5Cc6ccc(F)cc6C5=O)C4)ccc(C(N)=O)c3[nH]2)cn1 [O.1.18*] | 1 to 10 | 
26 | Cn1cc(-c2cc3c(N4CCC[C@@H](NC(=O)c5ccc(C(C)(C)C)cc5)C4)ccc(C(N)=O)c3[nH]2)cn1 [O.1.19*] | < 0.1 | 
27 | COc1ccc(C(=O)N[C@@H]2CCCN(c3ccc(C(N)=O)c4[nH]c(-c5cnn(C)c5)cc34)C2)cc1 [O.1.20*] | 0.1 to 1 | 
28 | Cn1cc(-c2cc3c(N4CCC[C@@H](NC(=O)c5ccc(C(F)(F)F)cc5)C4)ccc(C(N)=O)c3[nH]2)cn1 [O.1.21*] | 0.1 to 1 | 
29 | Cn1cc(-c2cc3c(N4CCC[C@@H](NC(=O)c5ccc(C(F)F)cc5)C4)ccc(C(N)=O)c3[nH]2)cn1 [O.1.22*] | 0.1 to 1 | 
30 | Cn1cc(-c2cc3c(N4CCC[C@@H](NC(=O)c5ccc(C(C)(C)C(N)=O)cc5)C4)ccc(C(N)=O)c3[nH]2)cn1 [O.1.23*] | 0.1 to 1 | 
31 | Cn1cc(-c2cc3c(N4CCC[C@@H](NC(=O)c5ccc(OC(F)(F)F)cc5)C4)ccc(C(N)=O)c3[nH]2)cn1 [O.1.24*] | 0.1 to 1 | 
32 | Cn1cc(-c2cc3c(N4CCC[C@@H](NC(=O)c5ccc(C6CC6)cc5)C4)ccc(C(N)=O)c3[nH]2)cn1 [O.1.25*] | < 0.1 | 
33 | CC(C)(C)c1ccc(C(=O)N[C@@H]2CCCN(c3ccc(C(N)=O)c4[nH]c(-c5cccnc5)cc34)C2)cc1 [O.1.26] | < 0.1 | 
34 | NC(=O)c1ccc(N2CCC[C@@H](n3cnc4ccccc4c3=O)C2)c2cc(-c3cccnc3)[nH]c12 [O.1.27*] | 0.1 to 1 | 
35 | Cc1ccc(-c2cc3c(Nc4ccnn4C)ccc(C(N)=O)c3[nH]2)cc1 [Preparation #T.1, 4-(1-Methyl-1H-pyrazol-5-ylamino)-2-p-tolyl-1H-indole-7-carboxamide] |  | 0.1 to 1
36 | Cc1ccc(-c2cc3c(Cc4c(Cl)cccc4Cl)ccc(C(N)=O)c3[nH]2)cc1 [U.1.1] | 1 to 10 | 
37 | Cc1ccc(-c2cc3c(-c4nccs4)ccc(C(N)=O)c3[nH]2)cc1 [U.1.2] | < 0.1 | 
38 | Cc1ccc(-c2cc3c(-c4ccccn4)ccc(C(N)=O)c3[nH]2)cc1 [U.1.3] | 0.1 to 1 | 
